From patent publication US8795632B2, “Disease animal model for chronic pain” (Astellas Pharma Inc., priority 2008, dated 2014)

Key:
[1] = test system: dopamine, norepinephrine, serotonin, DOPAC, MHPG and 5-HIAA in the spinal cord, thalamus and prefrontal cortex; assay: Amounts of dopamine, norepinephrine, serotonin, DOPAC, MHPG and 5-HIAA in spinal cord, thalamus and prefrontal cortex after reserpine single administration (HPLC-ECD); assay type: in vivo, rat; conditions: reserpine 3 mg/kg single s.c.
Experimental: Male Sprague-Dawley rats (7 weeks old, Japan SLC, Hamamatsu, Japan) were used as the animal.
A total of 72 rats were divided into 12 test schedules (collection of samples before the administration, 2, 4, 8 and 24 hours after the administration and 2, 3, 5, 7, 10, 14 and 21 days thereafter) and further divided each of them into a vehicle (0.5% acetic acid aqueous solution) administration group and a reserpine 3 mg/kg administration group, to 3 rats per group. As shown in Example 5, the vehicle or 3 mg/kg of reserpine was administered subcutaneously only once to each rat, and the brain and spinal cord were quickly collected after 2, 4, 8 or 24 hours or 2, 3, 5, 7, 10, 14 or 21 days of the administration. The thalamus and prefrontal cortex were separated from the brain on an ice-cold dish. Regarding the sampling before administration, samples were collected before beginning of the administration of the vehicle or reserpine. The collected samples were quickly frozen and stored at −80° C. until their use in the measurements. On the day of the measurement, tissues of respective samples were subjected to wet weight measurement, homogenized in 0.2 M perchloric acid/0.1 mM EDTA-2Na solution using an ultrasonic homogenizer. After centrifugation at 15,000 g and at 4° C. for 15 minutes, the supernatant was adjusted to pH 3.5 using sodium acetate and filtered using a filter. Amounts of dopamine, norepinephrine, serotonin, DOPAC, MHPG and 5-HIAA in these samples were measured using a high performance liquid chromatography (column: SC-50DS 3.0, 150 mm, Eicom Co., Ltd., Kyoto, Japan, mobile phase composition: 0.1 M sodium acetate buffer, 0.1 M citrate buffer, pH 3.5, 5 mg/l EDTA-2Na, 200 mg/l sodium octane sulfonic acid, 16% methanol) and an electrochemical detector (ECD-300, Eicom Co., Ltd., Kyoto, Japan). The measurement was carried out under conditions of flow rate 0.5 ml/min, applied voltage 750 mV and 25° C. Amounts of dopamine, norepinephrine, serotonin, DOPAC, MHPG and 5-HIAA in the samples were quantified by comparing sample peak areas of respective standards measured on the same day of the sample measurement.
All of the measured values were expressed as average value±standard error in the graphs, and unit of the measured values was set to ng/g tissue wet weight. Statistical difference of the measured values between the reserpine administration group and the vehicle administration group in each test schedule was carried out by the two-way analysis of variance and the Bonferroni method. Probability value (P) of less than 5% was judged as statistically significant (P<0.05 was expressed as * in the graphs).

Sprague-Dawley rats = assay: Heat sensitivity (Hargreaves method) after reserpine single administration; assay type: in vivo, rat; conditions: reserpine 3 mg/kg single s.c.
Experimental: Measurement of the heat sensitivity was carried out by the method of Hargreaves et al. (Hargreaves et al., Pain, 32, 77-88, 1988). A transparent measuring box was put on a glass plate supported with platforms and a rat was put therein and acclimatized. A mobile infrared heat source was arranged under the glass plate and focused on the plantar surface of the right hind paw of the rat. A latency time required for the rat to show a withdrawal reaction of right hind leg from the heat source was measured as a withdrawal latency time and used as the index of heat sensitivity. According to this measuring system, shorter withdrawal latency time represents acceleration of the skin heat sensitivity.
Influences of the reserpine single administration upon the muscle pressure pain threshold value, skin pain sensation threshold value, cold sensitivity and heat sensitivity were examined in accordance with the following protocol. A total of 12 male rats were used. The muscle pressure pain threshold value, skin pain sensation threshold value, cold sensitivity and heat sensitivity before the reserpine treatment (base lines) were measured and then they were divided into a solvent (0.5% acetic acid aqueous solution) group and a reserpine (3 mg/kg) group (the number of animals per group was 6). […]
All of the measured values were expressed as average value±standard error. […]

[2] = after 2, 4, 8 and 24 hours and 2, 3, 5, 7, 10, 14 and 21 days

COC(=O)[C@H]1[C@H]2C[C@@H]3c4[nH]c5cc(OC)ccc5c4CCN3C[C@H]2C[C@@H](OC(=O)c2cc(OC)c(OC)c(OC)c2)[C@@H]1OC [reserpine]
significantly reduced: amount of DOPAC in the prefrontal cortex ([1]; after 2, 3, 5, 7, 10 and 14 days) | amount of dopamine in the spinal cord [1, 2] | amount of dopamine in the thalamus [1, 2] | amount of norepinephrine in the prefrontal cortex [1, 2] | amount of norepinephrine in the spinal cord [1, 2] | amount of norepinephrine in the thalamus [1, 2] | amount of serotonin in the spinal cord [1, 2] | amount of dopamine in the prefrontal cortex ([1]; after 2, 4, 8 and 24 hours and 2, 3, 5, 7, 10 and 14 days) | amount of serotonin in the prefrontal cortex ([1]; after 2, 4, 8 and 24 hours and 2, 3, 5, 7 and 10 days) | amount of serotonin in the thalamus ([1]; after 8 and 24 hours and 3, 5, 7 and 10 days) | amount of MHPG in the prefrontal cortex ([1]; after 4 hours and 7 days) | amount of MHPG in the spinal cord ([1]; after 4 hours and 7 days) | amount of 5-HIAA in the prefrontal cortex ([1]; after 8 hours and 2, 3, 5, 7, 10, 14 and 21 days)
did not significantly change: amount of DOPAC in the spinal cord ([1]; after 2 days and later) | amount of DOPAC in the thalamus ([1]; all time points) | amount of MHPG in the thalamus ([1]; all time points) | amount of 5-HIAA in the spinal cord ([1]; in and after 3 days) | amount of DOPAC in the prefrontal cortex ([1]; within 24 hours after the administration)
significantly increased: amount of 5-HIAA in the thalamus ([1]; after 2, 4, 8 and 24 hours) | amount of DOPAC in the spinal cord ([1]; after 2, 4, 8 and 24 hours) | amount of 5-HIAA in the spinal cord ([1]; after 4, 8, 24 hours and 2 days)
8 h: time after administration at which transient acute-phase acceleration of heat sensitivity recovers (Sprague-Dawley rats)
significantly shortened: heat sensitivity: withdrawal latency time (Sprague-Dawley rats; 2 and 4 hours and 2 and 5 days after administration)
no significant difference: amount of 5-HIAA in the thalamus ([1]; in and after 2 days)
